From US6287794A, “Factor Vlla inhibitors” (Aventis Pharma Deutschland GmbH, priority 1998, dated 2001)
Non-standard residues stand in square brackets, D forms with d. Residues, ends and D or L forms follow the SMILES beside them. *: point of attachment. Phe(4-amidino) = N=C(N)c1ccc(C[C@H](N)C(=O)O)cc1; Arg(NO2) = N=C(NCCC[C@H](N)C(=O)O)N[N+](=O)[O-]; Abu(4-CN) = N#CCC[C@H](N)C(=O)O; Cha = N[C@@H](CC1CCCCC1)C(=O)O; Ala(CN) = N#CC[C@H](N)C(=O)O; Chg = N[C@H](C(=O)O)C1CCCCC1; Alloc = C=CCOC(=O)*; Bn = c1ccc(C*)cc1; Acm = CC(=O)NC*

Target: T1, human factor VIIa and TF (Homo sapiens, UniProt P08709)
T1 construct: human factor VIIa and TF
Assay: Determination of Ki for FVIIa inhibition (chromogenic assay, substrate S-2288)
Format: biochemical
Details: human factor VIIa 5 nM and TF 10 nM, S-2288 500 μM, 25° C., 15 minute preincubation, pH 8.15; read-out: Factor VIIa inhibitory activities Ki
Procedure: The inhibitory activity (Ki) of each compound towards […] activity was determined using a chromogenic assay essentially as described previously. J. A. Ostrem, F. Al-Obeidi, P. Safar, A. Safarova, S. K. Stringer, M. Patek, M. T. Cross, J. Spoonamore, J. C. LoCascio, P. Kasireddy, D. S. Thorpe, N. Sepetov, M. Lebi, P. Wildgoose, P. Strop, "Discovery of a novel, potent, and specific family of factor Xa inhibitors via combinatorial chemistry". Biochemistry 37 (1998) 1053-1059. Kinetic assays were conducted at 25° C. in half-area microtiter plates (Costar Corp., Cambridge, Mass.) using a kinetic plate reader (Molecular Devices Spectramax 250). A typical assay consisted of 25 μl of human factor VIIa and TF (5 nM and 10 nM, respective final concentration) combined with 40 μl of inhibitor dilutions in 10% DMSO/TBS-PEG buffer (50 mM Tris, 15 mM NaCl, 5 mM CaCl2; 0.05% PEG 8k, pH 8.15). Following a 15 minute preincubation period, the assay was initiated by the addition of 35 μl of the chromogenic substrate S-2288 (D-Ile-Pro-Arg-pNA, Pharmacia Hepar Inc, 500 μM final concentration.). The apparent inhibition constants were calculated from the slope of the progress curves during the linear part of the time course, typically between 1 and 5 min following addition of substrate to the assay. The true Ki was subsequently determined for each compound by correcting for substrate concentration (S) and the Km using the formula Ki=Ki app/(1+(S)/Km). I. H. Segal, Enzyme Kinetics, pp 100-125 (John Wiley & Sons, N.Y., 1975).

T1 sequence (P08709 213-466 limits assumed): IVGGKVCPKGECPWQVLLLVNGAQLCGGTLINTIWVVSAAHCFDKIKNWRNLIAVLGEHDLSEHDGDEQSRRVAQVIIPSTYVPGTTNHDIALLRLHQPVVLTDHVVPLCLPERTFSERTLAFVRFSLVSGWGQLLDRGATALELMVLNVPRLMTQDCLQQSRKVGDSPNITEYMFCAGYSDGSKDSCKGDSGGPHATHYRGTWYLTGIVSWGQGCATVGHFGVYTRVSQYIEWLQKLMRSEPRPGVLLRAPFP
T1 sequence (P08709 61-212 limits assumed): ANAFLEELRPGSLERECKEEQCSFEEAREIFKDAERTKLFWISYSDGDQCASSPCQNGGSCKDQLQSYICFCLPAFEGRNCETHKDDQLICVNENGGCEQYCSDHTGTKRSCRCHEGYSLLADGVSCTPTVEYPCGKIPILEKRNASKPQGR
T1 sequence (P13726 33-295 partner): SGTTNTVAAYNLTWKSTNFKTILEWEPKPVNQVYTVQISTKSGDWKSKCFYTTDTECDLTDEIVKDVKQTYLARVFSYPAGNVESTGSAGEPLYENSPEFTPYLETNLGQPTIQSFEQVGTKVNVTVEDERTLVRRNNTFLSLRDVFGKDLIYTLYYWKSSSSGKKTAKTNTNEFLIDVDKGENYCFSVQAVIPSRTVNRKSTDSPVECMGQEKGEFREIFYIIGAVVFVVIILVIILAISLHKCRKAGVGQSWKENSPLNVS

`C=CCOC(=O)N[C@@H](Cc1ccc(C(=N)N)cc1)C(=O)N[C@@H](CCC(=O)O)C(=O)N[C@@H](CCC#N)C(=O)N[C@@H](CC1CCCCC1)C(N)=O` [Alloc--pAph--Glu-2-Abu(4-CN)--Cha--NH2] (Alloc-[Phe(4-amidino)]E[Abu(4-CN)][Cha]-NH2) showed a Ki of 0.063 µM.
For `C=CCOC(=O)N[C@@H](Cc1ccc(C(=N)N)cc1)C(=O)N[C@@H](CCC(=O)O)C(=O)N[C@@H](CC#N)C(=O)N[C@@H](CC1CCCCC1)C(N)=O` [Alloc--pAph--Glu--Ala(3-CN)--Cha--NH2] (Alloc-[Phe(4-amidino)]E[Ala(CN)][Cha]-NH2), the Ki was 0.12 µM.
Work on `C=CCOC(=O)N[C@@H](Cc1ccc(C(=N)N)cc1)C(=O)N[C@@H](CCC(=O)O)C(=O)N[C@@H](CCCNC(=N)N[N+](=O)[O-])C(=O)N[C@@H](CC1CCCCC1)C(N)=O` [Alloc--pAph--Glu--Arg(NO2)--Cha--NH2] (Alloc-[Phe(4-amidino)]E[Arg(NO2)][Cha]-NH2) yielded a Ki of 0.014 µM.
For `C=CCOC(=O)N[C@@H](Cc1ccc(C(=N)N)cc1)C(=O)N[C@@H](CCC(=O)O)C(=O)N[C@@H](CCCNC(=N)N)C(=O)N[C@@H](CC1CCCCC1)C(N)=O` [Alloc--pAph--Glu--Arg--Cha--NH2, Alloc-pAph-Glu-Arg-Cha-NH2] (Alloc-[Phe(4-amidino)]ER[Cha]-NH2), the Ki was 0.046 µM.
Work on `C=CCOC(=O)N[C@@H](Cc1ccc(C(=N)N)cc1)C(=O)N[C@@H](CCC(=O)O)C(=O)N[C@@H](CCCNC(=N)N)C(=O)N[C@H](C(N)=O)C1CCCCC1` [Alloc--pAph--Glu--Arg--Chg--NH2, Alloc-pAph-Glu-Arg-Chg-NH2] (Alloc-[Phe(4-amidino)]ER[Chg]-NH2) yielded a Ki of 0.238 µM.
For `C=CCOC(=O)N[C@@H](Cc1ccc(C(=N)N)cc1)C(=O)N[C@@H](CCC(=O)O)C(=O)N[C@@H](CC(N)=O)C(=O)NC1CCCc2ccccc21` (stereo partly drawn) [Alloc--pAph--Glu--Asn-1,2,3,4-tetrahydro-1-naphthylamide], the Ki was 0.045 µM.
In the case of `C=CCOC(=O)N[C@@H](Cc1ccc(C(=N)N)cc1)C(=O)N[C@@H](CCC(=O)O)C(=O)N[C@@H](CC(N)=O)C(=O)NC(C)c1cccc2ccccc12` (stereo partly drawn) [Alloc--pAph--Glu--Asn-1-(1-naphthyl)ethylamide], the Ki is reported as 0.021 µM.
`C=CCOC(=O)N[C@@H](Cc1ccc(C(=N)N)cc1)C(=O)N[C@@H](CCC(=O)O)C(=O)N[C@@H](CC(N)=O)C(=O)NCc1cccc2ccccc12` [Alloc--pAph--Glu--Asn-1-naphthylmethylamide] showed a Ki of 0.031 µM.
`C=CCOC(=O)N[C@@H](Cc1ccc(C(=N)N)cc1)C(=O)N[C@@H](CCC(=O)O)C(=O)N[C@@H](CC(N)=O)C(=O)NCC(c1ccccc1)c1ccccc1` [Alloc--pAph--Glu--Asn-2,2-diphenylethylamide] was tested, and the Ki was 0.049 µM.
`C=CCOC(=O)N[C@@H](Cc1ccc(C(=N)N)cc1)C(=O)N[C@@H](CCC(=O)O)C(=O)N[C@@H](CC(N)=O)C(=O)NCc1ccc(F)cc1F` [Alloc--pAph--Glu--Asn-2,4-difluorobenzylamide] gave a Ki of 0.051 µM.
`C=CCOC(=O)N[C@@H](Cc1ccc(C(=N)N)cc1)C(=O)N[C@@H](CCC(=O)O)C(=O)N[C@@H](CC(N)=O)C(=O)NCCc1cccc2ccccc12` [Alloc--pAph--Glu--Asn-2-(1-naphthyl)ethylamide] showed a Ki of 0.022 µM.
In the case of `C=CCOC(=O)N[C@@H](Cc1ccc(C(=N)N)cc1)C(=O)N[C@@H](CCC(=O)O)C(=O)N[C@@H](CC(N)=O)C(=O)NCCc1ccc2ccccc2c1` [Alloc--pAph--Glu--Asn-2-(2-naphthyl)ethylamide], the Ki is reported as 0.052 µM.
`C=CCOC(=O)N[C@@H](Cc1ccc(C(=N)N)cc1)C(=O)N[C@@H](CCC(=O)O)C(=O)N[C@@H](CC(N)=O)C(=O)NCCc1ccccn1` [Alloc--pAph--Glu--Asn-2-(2-pyridyl)ethylamide] gave a Ki of 0.071 µM.
Compound `C=CCOC(=O)N[C@@H](Cc1ccc(C(=N)N)cc1)C(=O)N[C@@H](CCC(=O)O)C(=O)N[C@@H](CC(N)=O)C(=O)NCCc1cccc(Cl)c1` [Alloc--pAph--Glu--Asn-2-(3-chlorophenyl)ethylamide] has a Ki of 0.023 µM.
In the case of `C=CCOC(=O)N[C@@H](Cc1ccc(C(=N)N)cc1)C(=O)N[C@@H](CCC(=O)O)C(=O)N[C@@H](CC(N)=O)C(=O)NCCN1CCOCC1` [Alloc--pAph--Glu--Asn-2-(4-morpholinyl)ethylamide], the Ki is reported as 0.41 µM.
Compound `C=CCOC(=O)N[C@@H](Cc1ccc(C(=N)N)cc1)C(=O)N[C@@H](CCC(=O)O)C(=O)N[C@@H](CC(N)=O)C(=O)NCCc1ccc(S(N)(=O)=O)cc1` [Alloc--pAph--Glu--Asn-2-(4-sulfamoylphenyl)ethylamide] has a Ki of 0.35 µM.
In the case of `C=CCOC(=O)N[C@@H](Cc1ccc(C(=N)N)cc1)C(=O)N[C@@H](CCC(=O)O)C(=O)N[C@@H](CC(N)=O)C(=O)NCc1ccc2ccccc2c1` [Alloc--pAph--Glu--Asn-2-naphthylmethylamide], the Ki is reported as 0.027 µM.
`C=CCOC(=O)N[C@@H](Cc1ccc(C(=N)N)cc1)C(=O)N[C@@H](CCC(=O)O)C(=O)N[C@@H](CC(N)=O)C(=O)NCC1CCCO1` (stereo partly drawn) [Alloc--pAph--Glu--Asn-2-tetrahydrofuranylmethylamide] showed a Ki of 0.17 µM.
For `C=CCOC(=O)N[C@@H](Cc1ccc(C(=N)N)cc1)C(=O)N[C@@H](CCC(=O)O)C(=O)N[C@@H](CC(N)=O)C(=O)NCCC(c1ccccc1)c1ccccc1` [Alloc--pAph--Glu--Asn-3,3-diphenylpropylamide], the Ki was 0.024 µM.
`C=CCOC(=O)N[C@@H](Cc1ccc(C(=N)N)cc1)C(=O)N[C@@H](CCC(=O)O)C(=O)N[C@@H](CC(N)=O)C(=O)NCc1ccc(Cl)c(Cl)c1` [Alloc--pAph--Glu--Asn-3,4-dichlorobenzylamide] was tested, and the Ki was 0.026 µM.
Work on `C=CCOC(=O)N[C@@H](Cc1ccc(C(=N)N)cc1)C(=O)N[C@@H](CCC(=O)O)C(=O)N[C@@H](CC(N)=O)C(=O)NCc1ccc2c(c1)OCO2` [Alloc--pAph--Glu--Asn-3,4-methylenedioxybenzylamide] yielded a Ki of 0.12 µM.
With `C=CCOC(=O)N[C@@H](Cc1ccc(C(=N)N)cc1)C(=O)N[C@@H](CCC(=O)O)C(=O)N[C@@H](CC(N)=O)C(=O)NCc1cc(C(F)(F)F)cc(C(F)(F)F)c1` [Alloc--pAph--Glu--Asn-3,5-bistrifluoromethylbenzylamide] the Ki was 0.033 µM.
Compound `C=CCOC(=O)N[C@@H](Cc1ccc(C(=N)N)cc1)C(=O)N[C@@H](CCC(=O)O)C(=O)N[C@@H](CC(N)=O)C(=O)NCCC(C)C` [Alloc--pAph--Glu--Asn-3-methylbutylamide] has a Ki of 0.11 µM.
Compound `C=CCOC(=O)N[C@@H](Cc1ccc(C(=N)N)cc1)C(=O)N[C@@H](CCC(=O)O)C(=O)N[C@@H](CC(N)=O)C(=O)NCCCc1ccccc1` [Alloc--pAph--Glu--Asn-3-phenylpropylamide] has a Ki of 0.026 µM.
Compound `C=CCOC(=O)N[C@@H](Cc1ccc(C(=N)N)cc1)C(=O)N[C@@H](CCC(=O)O)C(=O)N[C@@H](CC(N)=O)C(=O)NCc1ccc(N(C)C)cc1` [Alloc--pAph--Glu--Asn-4-dimethylaminobenzylamide] has a Ki of 0.11 µM.
Compound `C=CCOC(=O)N[C@@H](Cc1ccc(C(=N)N)cc1)C(=O)N[C@@H](CCC(=O)O)C(=O)N[C@@H](CC(N)=O)C(=O)NCc1ccc(OC)cc1` [Alloc--pAph--Glu--Asn-4-methoxybenzylamide] has a Ki of 0.083 µM.
Compound `C=CCOC(=O)N[C@@H](Cc1ccc(C(=N)N)cc1)C(=O)N[C@@H](CCC(=O)O)C(=O)N[C@@H](CC(N)=O)C(=O)NC1c2ccccc2-c2ccccc21` [Alloc--pAph--Glu--Asn-9-fluorenylamide] has a Ki of 0.023 µM.
`C=CCOC(=O)N[C@@H](Cc1ccc(C(=N)N)cc1)C(=O)N[C@@H](CCC(=O)O)C(=O)N[C@@H](CC(N)=O)C(=O)N[C@@H](CC1CCCCC1)C(N)=O` [Alloc--pAph--Glu--Asn--Cha--NH2, Alloc-pAph-Glu-Asn-Cha-NH2] (Alloc-[Phe(4-amidino)]EN[Cha]-NH2) gave a Ki of 0.021 µM.
Work on `C=CCOC(=O)N[C@@H](Cc1ccc(C(=N)N)cc1)C(=O)N[C@@H](CCC(=O)O)C(=O)N[C@@H](CC(N)=O)C(=O)NCC1CCCCC1` [Alloc--pAph--Glu--Asn--NH--CH2 --Chx, Alloc-pAph-Glu-Asn-NH--CH2 -Chx] yielded a Ki of 0.15 µM.
`C=CCOC(=O)N[C@@H](Cc1ccc(C(=N)N)cc1)C(=O)N[C@@H](CCC(=O)O)C(=O)N[C@@H](CC(N)=O)C(=O)N(Cc1ccccc1)Cc1ccccc1` [Alloc--pAph--Glu--Asn-N,N-dibenzylamide] was tested, and the Ki was 0.41 µM.
Compound `C=CCOC(=O)N[C@@H](Cc1ccc(C(=N)N)cc1)C(=O)N[C@@H](CCC(=O)O)C(=O)N[C@@H](CC(N)=O)C(=O)N(C)Cc1cccc2ccccc12` [Alloc--pAph--Glu--Asn-N-methyl-N-(1-naphthylmethyl)amide] has a Ki of 1.7 µM.
With `C=CCOC(=O)N[C@@H](Cc1ccc(C(=N)N)cc1)C(=O)N[C@@H](CCC(=O)O)C(=O)N[C@@H](CSCNC(C)=O)C(=O)N[C@@H](CC1CCCCC1)C(N)=O` [Alloc--pAph--Glu--Cys(Acm)--Cha--NH2] (Alloc-[Phe(4-amidino)]EC(Acm)[Cha]-NH2) the Ki was 0.12 µM.
`C=CCOC(=O)N[C@@H](Cc1ccc(C(=N)N)cc1)C(=O)N[C@@H](CCC(=O)O)C(=O)N[C@@H](CSCc1ccccc1)C(=O)N[C@@H](CC1CCCCC1)C(N)=O` [Alloc--pAph--Glu--Cys(Bzl)--Cha--NH2] (Alloc-[Phe(4-amidino)]EC(Bn)[Cha]-NH2) was tested, and the Ki was 0.026 µM.
